In US20230097883A1, “ERGOTHIONEINE PET COMPOUNDS AND METHODS OF USE THEREOF” (VANDERBILT UNIVERSITY, priority 2021, published 2023):

Assays:
[1] = system: 5XFAD mice; experiment: Novel object recognition after ERGO treatment; assay type: in vivo, mouse; details: ERGO-treated 5XFAD versus non-treated 5XFAD and WT, final test trial
Protocol: To address our primary question whether longitudinal consumption of ERGO as a potent antioxidant benefit the brain, three cohorts of animals (n=12 non-treated WT control, n=12 non-treated 5XFAD, and n=18 ERGO-treated 5XFAD) were used (FIG. 3.2A). Starting at the age of 8 weeks, the animals were treated with high doses of ERGO solution (25-50 mg/Kg) formulated in double distilled (dd) water via oral gavage three times a week over the course of eight weeks. To reduce bias in the behavioral experiments with regard to the potential stress during gavage treatment, non-treated animals underwent the identical gavage process with the vehicle, water, only. The efficacy of the therapy was evaluated by behavioral testing, followed by three different non-invasive PET imaging sessions to assess biomarkers related to AD pathology. […]
Mice were first allowed to habituate to an open arena for 5 min (white acrylic box, approximately 40 cm^2) located under a camera to record position and movement during trials. […] Preference for either object was inferred from exploratory proximity which was recorded automatically using AnyMaze using a target area comprising a circle with diameter 2-cm larger than the target objects. […]

[2] = system: IBA1-positive microglia; experiment: IBA1 immunohistochemistry of brain sections after ERGO treatment; assay type: in vivo, mouse; details: ERGO-treated versus non-treated 5XFAD mice
Protocol: In this study, after the PET imaging, animals (non-treated 5XFAD (n=3) and ERGO-treated 5XFAD mice (n=5)) were perfused, and the brain sections were stained with antibodies against GFAP and IBA1 for neuroinflammatory markers astrocytes and microglia, respectively.
Quantitative analysis of the PET imaging and IHC data was performed using imageJ software. The data was imported to GraphPad Prism version 9 for Mac (GraphPad Software, San Diego, Calif., USA) for statistical analysis. Differences between groups were tested using unpaired t-test.

[3] = system: oxidative stress; experiment: PET imaging of LPS-induced neuroinflammation with [11C]ERGO radioligand, with Tempol blocking; assay type: in vivo, mouse; details: LPS 5 mg/Kg i.p. 24 h before; 20 MBq/0.1 mL I.V.; 30 min scan from 10 min after injection
Protocol: The mice were injected with ˜20 MBq/0.1 ml 11C-ERGO via the tail vein and returned to their cages for 10 min. Then they were anesthetized with 2% isofluorane and imaged in an Inveon microPET (Siemens Pre-clinical, Knoxville, Tenn., USA) for 30 min in static mode followed by a CT scan using a NanoSPECT/CT (Mediso, Wash. D.C.) at an x-ray beam intensity of […] and x-ray voltage of 45 kVp. PET images were reconstructed using the iterative MAP reconstruction algorithm with 18 iterations and a beta smoothing value of 0.001 into 128×128×95 slices with a voxel size of 0.388 mm×0.388 mm×0.796 mm. The CT images were reconstructed into 170×170×126 slices at a voxel size of 0.4×0.4×0.4 mm^3. The PET and CT images were co-registered using the imaging tool AMIDE.
The mouse model of LPS-induced neuroinflammation was developed based on past reports. The LPS derived from Escherichia coli […] (Sigma Aldrich, St Louis, Mo.) was formulated in sterilized dd. water and given a high dose of LPS formulation (5 mg/Kg) through intraperitoneal injection 24 h before PET imaging. This high dose would result in approximately 12-13% body weight loss over the course of 24 h. After PET imaging, animals were sacrificed, and the brains were collected for histology analysis.
The reported LPS mouse model of neuroinflammation in the past was reproduced for the validation of the specificity of the probe. […]

[4] = Ex-vivo cut-and-count whole-body biodistribution of I.V.-injected [11C]ERGO in WT mice; design: species or system mouse; details: for brain concentration: after cardiac perfusion
Protocol: At 5 or 10 min post injection, anesthetized mice were laid on the shallow tray filled with crushed ice and the thoracic cavity was accessed using a scalpel after making […] mid-line incision from the abdominal area. After careful separation of the liver from the diaphragm, the thoracic opening was stabilized with a retractor. Perfusion was performed as we described in the past. Following removal of air bubbles, approximately 30 mL (pH7.4) of ice-cold PBS buffer is slowly injected in the left ventricle toward the ascending aorta using a 25-G syringe while the right atrium was snipped off using a curved point squeeze snip scissors to facilitate drainage of the systemic venous return. Then, 30 mL of 4% paraformaldehyde (PFA, pH 7.4) was perfused. When completed, tissues were harvested and weighed before counting using the automatic gamma counter (Hidex).
Cohorts of WT mice were injected with [^11C]ERGO probe, followed by cardiac perfusion 5 (n=5), 10 (n=5) and 30 (n=6) minutes after injection before tissues were collected for activity counting.

[5] = about 30 minutes after injection
[6] = initial value (5 minutes post I.V. injection)

Q: With `C[N+](C)(C)[C@@H](Cc1c[nH]c(=S)[nH]1)C(=O)[O-]` [ERGO, L-ergothioneine] as the compound, how does the discrimination index [1] read?
A: did not vary among the groups

Q: And the “reduction of IBA1-positive microglia” value [2]?
A: ~80%

Q: With `C[N+](C)([11CH3])[C@@H](Cc1c[nH]c(=S)[nH]1)C(=O)[O-]` [[^11C]ERGO] as the compound, how does the “PET signal in brain regions, LPS-treated versus nontreated WT mice” value [3] read?
A: stronger than that from nontreated counterparts across every major region of the brain

Q: And the blood concentration [4, 5]?
A: 0.33 % ID/g

Q: And the eyes concentration [4, 5]?
A: 0.52 % ID/g

Q: What about the heart concentration [4, 5] of the same compound?
A: 0.51 % ID/g

Q: And the kidneys concentration [4, 5]?
A: 4.2 % ID/g

Q: And the liver concentration [4, 5]?
A: 2.86 % ID/g

Q: And the small intestine concentration [4, 5]?
A: 0.64 % ID/g

Q: And the spleen concentration [4, 5]?
A: 0.97 % ID/g

Q: What about the brain concentration [4, 5] of the same compound?
A: 0.35 % ID/g

Q: What about the blood concentration [4, 6] of the same compound?
A: 0.39 % ID/g

Q: What about the eyes concentration [4, 6] of the same compound?
A: 0.11 % ID/g

Q: And the heart concentration [4, 6]?
A: 0.13 % ID/g

Q: What about the kidneys concentration [4, 6] of the same compound?
A: 1.33 % ID/g

Q: What about the liver concentration [4, 6] of the same compound?
A: 0.61 % ID/g

Q: What about the small intestine concentration [4, 6] of the same compound?
A: 0.2 % ID/g

Q: What about the spleen concentration [4, 6] of the same compound?
A: 0.2 % ID/g

Q: What about the brain concentration [4, 6] of the same compound?
A: 0.13 % ID/g
